Oligonucleotides are written 5' to 3', each unit as a sugar letter and its base; * is a phosphorothioate linkage, no mark a phosphodiester; rarer units and linkages stand in square brackets, end groups in braces. Plain capitals give the bases only. e = 2'-O-(2-methoxyethyl) (MOE); [5mC] = 5-methylcytosine; d = 2'-deoxy (DNA)
Legend:
[1] = tested on: human glucose-6-phosphatase translocase mRNA; assay: Antisense inhibition of human glucose-6-phosphatase translocase mRNA in T-24 cells, real-time PCR (Table 4); type: cell-based; details: 100 nM oligonucleotide, LIPOFECTIN, mRNA by real-time PCR
Method: The transitional cell bladder carcinoma cell line T-24 was obtained from the American Type Culture Collection (ATCC) (Manassas, Va.). T-24 cells were routinely cultured in complete McCoy's 5A basal media (Invitrogen Life Technologies, Carlsbad, Calif.) supplemented with 10% fetal bovine serum (Invitrogen Life Technologies, Carlsbad, Calif.). Cells were routinely passaged by trypsinization and dilution when they reached approximately 90% confluence. Cells were seeded into 96-well plates (Falcon-Primaria #3872) at a density of approximately 4000-6000 cells/well for use in oligomeric compound transfection experiments. When cells reached 65-75% confluency, they were treated with oligonucleotide. […] This transfection mixture was incubated at room temperature for approximately 0.5 hours. For cells grown in 96-well plates, wells were washed once with 100 μL OPTI-MEMTM-1 and then treated with 130 μL of the transfection mixture. Cells grown in 24-well plates or other standard tissue culture plates are treated similarly, using appropriate volumes of medium and oligonucleotide. Cells are treated and data are obtained in duplicate or triplicate. After approximately 4-7 hours of treatment at 37° C., the medium containing the transfection mixture was replaced with fresh culture medium. Cells were harvested 16-24 hours after oligonucleotide treatment. […] Prior to quantitative PCR analysis, primer-probe sets specific to the target gene being measured were evaluated for their ability to be “multiplexed” with a GAPDH amplification reaction. After isolation the RNA is subjected to sequential reverse transcriptase (RT) reaction and real-time PCR, both of which are performed in the same well. RT and PCR reagents were obtained from Invitrogen Life Technologies (Carlsbad, Calif.). […] The RT reaction was carried out by incubation for 30 minutes at 48° C. Following a 10 minute incubation at 95° C. to activate the PLATINUM® Taq, 40 cycles of a two-step PCR protocol were carried out: 95° C. for 15 seconds (denaturation) followed by 60° C. for 1.5 minutes (annealing/extension). Gene target quantities obtained by RT, real-time PCR were normalized using either the expression level of GAPDH, a gene whose expression is constant, or by quantifying total RNA using RiboGreenTM (Molecular Probes, Inc. Eugene, Oreg.). GAPDH expression was quantified by RT, real-time PCR, by being run simultaneously with the target, multiplexing, or separately. Total RNA was quantified using RiboGreenTM RNA quantification reagent (Molecular Probes, Inc. Eugene, Oreg.). A series of oligomeric compounds was designed to target different regions of human glucose-6-phosphatase translocase, using published sequences cited in Table 1. All compounds in Table 4 are chimeric oligonucleotides (“gapmers”) 20 nucleotides in length, composed of a central “gap” region consisting of 10 2'-deoxynucleotides, which is flanked on both sides ([NT]) by five-nucleotide “wings”. The wings are composed of 2'-O-(2-methoxyethyl) nucleotides, also known as 2'-MOE nucleotides. The internucleoside (backbone) linkages are phosphorothioate throughout the oligonucleotide. All cytidine residues are 5-methylcytidines. The compounds were analyzed for their effect on gene target mRNA levels by quantitative real-time PCR as described in other examples herein, using the following primer-probe set designed to hybridize to human glucose-6-phosphatase translocase: Forward primer: [NT] (incorporated herein as SEQ ID NO: 24) Reverse primer: [NT] (incorporated herein as SEQ ID NO: 25) And the PCR probe was: […] (incorporated herein as SEQ ID NO: 26), where FAM is the fluorescent dye and TAMRA is the quencher dye. Data are from experiments in which T-24 cells were treated with 100 nM of the antisense oligonucleotides of the present invention using LIPOFECTINTM. A reduction in expression is expressed as percent inhibition in Table 4. If present, “N.D.” indicates “not determined”. The control oligomeric compound used was SEQ ID NO: 11. […]

[2] = tested on: human glucose-6-phosphatase translocase mRNA; assay: Antisense inhibition of human glucose-6-phosphatase translocase mRNA in HepG2 cells (Table 11); type: cell-based; set-up: concentration or dose not given beside the values; details: LIPOFECTIN, mRNA by real-time PCR
Method: The human hepatoblastoma cell line HepG2 was obtained from the American Type Culture Collection (Manassas, Va.). HepG2 cells were routinely cultured in Eagle's MEM supplemented with 10% fetal bovine serum, 1 mM non-essential amino acids, and 1 mM sodium pyruvate (Invitrogen Life Technologies, Carlsbad, Calif.). Cells were routinely passaged by trypsinization and dilution when they reached approximately 90% confluence. Multiwell culture plates are prepared for cell culture by coating with a 1:100 dilution of type 1 rat tail collagen (BD Biosciences, Bedford, Mass.) in phosphate-buffered saline. The collagen-containing plates were incubated at 37° C. for approximately 1 hour, after which the collagen was removed and the wells were washed twice with phosphate-buffered saline. Cells were seeded into 96-well plates (Falcon-Primaria #353872, BD Biosciences, Bedford, Mass.) at a density of approximately 8,000 cells/well for use in oligomeric compound transfection experiments.
When cells reached 65-75% confluency, they were treated with oligonucleotide. Oligonucleotide was mixed with LIPOFECTIN™ Invitrogen Life Technologies, Carlsbad, Calif.) in Opti-MEM™-1 reduced serum medium (Invitrogen Life Technologies, Carlsbad, Calif.) to achieve the desired concentration of oligonucleotide and a LIPOFECTIN™ concentration of 2.5 or 3 μg/mL per 100 nM oligonucleotide. This transfection mixture was incubated at room temperature for approximately 0.5 hours. For cells grown in 96-well plates, wells were washed once with 100 μL OPTI-MEM™-1 and then treated with 130 μL of the transfection mixture. Cells grown in 24-well plates or other standard tissue culture plates are treated similarly, using appropriate volumes of medium and oligonucleotide. Cells are treated and data are obtained in duplicate or triplicate. After approximately 4-7 hours of treatment at 37° C., the medium containing the transfection mixture was replaced with fresh culture medium. Cells were harvested 16-24 hours after oligonucleotide treatment.
Quantitation of glucose 6-phosphatase translocase mRNA levels was accomplished by real-time quantitative PCR using the ABI PRISM™ 7600, 7700, or 7900 Sequence Detection System (PE-Applied Biosystems, Foster City, Calif.) according to manufacturer's instructions.
Prior to quantitative PCR analysis, primer-probe sets specific to the target gene being measured were evaluated for their ability to be “multiplexed” with a GAPDH amplification reaction. After isolation the RNA is subjected to sequential reverse transcriptase (RT) reaction and real-time PCR, both of which are performed in the same well. RT and PCR reagents were obtained from Invitrogen Life Technologies (Carlsbad, Calif.). […] The RT reaction was carried out by incubation for 30 minutes at 48° C. Following a 10 minute incubation at 95° C. to activate the PLATINUM® Taq, 40 cycles of a two-step PCR protocol were carried out: 95° C. for 15 seconds (denaturation) followed by 60° C. for 1.5 minutes (annealing/extension).
Gene target quantities obtained by RT, real-time PCR were normalized using either the expression level of GAPDH, a gene whose expression is constant, or by quantifying total RNA using RiboGreen™ (Molecular Probes, Inc. Eugene, Oreg.). GAPDH expression was quantified by RT, real-time PCR, by being run simultaneously with the target, multiplexing, or separately. Total RNA was quantified using RiboGreen™ RNA quantification reagent (Molecular Probes, Inc. Eugene, Oreg.).
A series of oligomeric compounds was designed to target different regions of human glucose-6-phosphatase translocase, using published sequences cited in Table 1. All compounds in Table 4 are chimeric oligonucleotides (“gapmers”) 20 nucleotides in length, composed of a central “gap” region consisting of 10 2′-deoxynucleotides, which is flanked on both sides (5′ and 3′) by five-nucleotide “wings”. The wings are composed of 2′-O-(2-methoxyethyl) nucleotides, also known as 2′-MOE nucleotides. […]

[3] = Plasma glucose, cholesterol and triglycerides in normal Sprague-Dawley rats (Table 14); type: in vivo, rat; set-up: plasma GLUCOSE WK 0 / plasma GLUCOSE WK 3: unit not given beside the values
Method: (§1) Each treatment group was comprised of 4 animals.
To further assess the physiological effects resulting from inhibition of target mRNA, the rats were evaluated at the beginning (Wk 0) and at the end (Wk 3) of the treatment period for plasma glucose, plasma cholesterol, and plasma triglyceride levels. Triglycerides and cholesterol were measured by routine clinical analyzer instruments (e.g. Olympus Clinical Analyzer, Melville, N.Y.). Glucose levels were measured using a glucose analyzer, for example a YSI glucose analyzer (YSI Scientific, Yellow Springs, Ohio). Results are presented in Table 14 as the average level of plasma glucose, plasma cholesterol (CHOL), or plasma triglycerides (TRIG) measured per treatment group.

[4] = tested on: glucose-6-phosphatase translocase mRNA; assay: Target reduction in liver: rat dose-response study (Table 12); type: in vivo; details: Sprague-Dawley rats; for % Inhibition, target reduction in liver: three weeks
Method: as §1
At the end of the treatment period, animals were sacrificed and target reduction in liver was measured by real-time PCR as described in other examples herein. Results are shown in Table 12 as the average percent reduction in glucose-6-phosphatase translocase levels as compared to saline treated control.

[5] = Body weight and tissue weights of normal Sprague-Dawley rats (Table 13); details: for Spleen weight / Fat weight / Kidney weight / Liver weight: end of study
Method: For three weeks, male Sprague-Dawley rats were injected twice-weekly with doses of 12.5 mg/kg, 25 mg/kg, or 50 mg/kg of ISIS 145760, ISIS 359543, or ISIS 366228. Each treatment group was comprised of 4 animals. Animals which received twice weekly injections of saline served as controls.
Body weight was monitored throughout the study period. […] Tissue weights were also measured at the end of the study.

AGGGTGCTCTCCTCCTTCAA (eA*eG*eG*eG*eT*dG*d[5mC]*dT*d[5mC]*dT*d[5mC]*d[5mC]*dT*d[5mC]*d[5mC]*eT*eT*e[5mC]*eA*eA; antisense) [ISIS 194855]
% Inhib [1]: 57% | % Inhib [2]: 66%

CCACCTATATCCAACTGCGC (e[5mC]*e[5mC]*eA*e[5mC]*e[5mC]*dT*dA*dT*dA*dT*d[5mC]*d[5mC]*dA*dA*d[5mC]*eT*eG*e[5mC]*eG*e[5mC]; antisense) [ISIS 194839]
% Inhib [1]: 83% | % Inhib [2]: 75%

CCCACTGACAAACTTGCTGA (e[5mC]*e[5mC]*e[5mC]*eA*e[5mC]*dT*dG*dA*d[5mC]*dA*dA*dA*d[5mC]*dT*dT*eG*e[5mC]*eT*eG*eA; antisense) [ISIS 194850]
% Inhib [1]: 88% | % Inhib [2]: 38%

GTGCTTGGCAATGGTGCTGA (eG*eT*eG*e[5mC]*eT*dT*dG*dG*d[5mC]*dA*dA*dT*dG*dG*dT*eG*e[5mC]*eT*eG*eA; antisense) [ISIS 359543]
plasma cholesterol (CHOL) WK 3 ([3]; 12.5 mg/kg twice weekly, saline 58): 57 | plasma triglycerides (TRIG) WK 0 ([3]; 12.5 mg/kg twice weekly, saline 69): 69 | plasma cholesterol (CHOL) WK 0 ([3]; 12.5 mg/kg twice weekly, saline 74): 80 | plasma GLUCOSE WK 0 ([3]; 12.5 mg/kg twice weekly, saline 135): 138 | plasma GLUCOSE WK 3 ([3]; 12.5 mg/kg twice weekly, saline 139): 165 | plasma triglycerides (TRIG) WK 3 ([3]; 12.5 mg/kg twice weekly, saline 140): 61 | plasma GLUCOSE WK 0 ([3]; 25 mg/kg twice weekly): 138 | plasma GLUCOSE WK 3 ([3]; 25 mg/kg twice weekly): 154 | plasma cholesterol (CHOL) WK 0 ([3]; 25 mg/kg twice weekly): 82 | plasma cholesterol (CHOL) WK 3 ([3]; 25 mg/kg twice weekly): 57 | plasma triglycerides (TRIG) WK 0 ([3]; 25 mg/kg twice weekly): 62 | plasma triglycerides (TRIG) WK 3 ([3]; 25 mg/kg twice weekly): 37 | plasma GLUCOSE WK 0 ([3]; 50 mg/kg twice weekly): 135 | plasma GLUCOSE WK 3 ([3]; 50 mg/kg twice weekly): 136 | plasma cholesterol (CHOL) WK 0 ([3]; 50 mg/kg twice weekly): 87 | plasma cholesterol (CHOL) WK 3 ([3]; 50 mg/kg twice weekly): 54 | plasma triglycerides (TRIG) WK 0 ([3]; 50 mg/kg twice weekly): 69 | plasma triglycerides (TRIG) WK 3 ([3]; 50 mg/kg twice weekly): 19 | plasma triglycerides (in words) ([3]; 12.5 to 50 mg/kg, three weeks): dose-dependent reductions in plasma triglycerides | % Inhib [2]: 74% | % Inhibition, target reduction in liver ([4]; 12.5 mg/kg twice weekly): 50% | % Inhibition, target reduction in liver ([4]; 25 mg/kg twice weekly): 62% | % Inhibition, target reduction in liver ([4]; 50 mg/kg twice weekly): 77% | target mRNA levels in rat liver (in words) ([4]; 12.5 to 50 mg/kg): effective in reducing target mRNA levels in rat liver in a dose-dependent manner | Spleen weight ([5]; 12.5 mg/kg twice weekly, saline 0.7): 0.9 grams | Fat weight ([5]; 12.5 mg/kg twice weekly, saline 1.8): 1.4 grams | Kidney weight ([5]; 12.5 mg/kg twice weekly, saline 3): 3 grams | Liver weight ([5]; 12.5 mg/kg twice weekly, saline 15): 15 grams | Body weight ([5]; 12.5 mg/kg twice weekly, week 3, saline 290): 285 grams | Fat weight ([5]; 25 mg/kg twice weekly): 1.3 grams | Kidney weight ([5]; 25 mg/kg twice weekly): 3 grams | Liver weight ([5]; 25 mg/kg twice weekly): 16 grams | Spleen weight ([5]; 25 mg/kg twice weekly): 1.1 grams | Body weight ([5]; 25 mg/kg twice weekly, week 3): 295 grams | Fat weight ([5]; 50 mg/kg twice weekly): 1.0 grams | Kidney weight ([5]; 50 mg/kg twice weekly): 3 grams | Liver weight ([5]; 50 mg/kg twice weekly): 13 grams | Spleen weight ([5]; 50 mg/kg twice weekly): 1.4 grams | Body weight ([5]; 50 mg/kg twice weekly, week 3): 277 grams | Increases in body weights (in words) ([5]; 12.5 to 50 mg/kg, throughout the study): comparable to the increases in body weight observed for saline-treated control animals

TGACTGCAGAAGTTTCCTGT (eT*eG*eA*e[5mC]*eT*dG*d[5mC]*dA*dG*dA*dA*dG*dT*dT*dT*e[5mC]*e[5mC]*eT*eG*eT; antisense) [ISIS 194838]
% Inhib [1]: 91% | % Inhib [2]: 42%

Source: US8258114B2, “Modulation of glucose-6-phosphatase translocase expression” (Isis Pharmaceuticals, Inc., priority 2004, dated 2012)
